Data reported in patent US5239058A, “Proteins having anticoagulant properties” (Merck & Co., Inc., priority 1992, dated 1993).

Tests used:
Normal Human Plasma [1] = assay: Modified Stypven Time, plasma based clotting assay; format: biochemical
chymotrypsin = biological target: T1, chymotrypsin (Bos taurus, UniProt P00766); assay: chymotrypsin chromogenic enzyme assay (S-2356); format: biochemical, bovine; conditions: 300-fold molar excess of TAP-1 over protease
T1 construct: purchased Worthington Enzymes, Inc
From the text: (§1) Ornithodoros moubata ticks were obtained from South Africa through Antibody Associates, Inc. (Bedford, Tex.). Colorimetric substrates were purchased from Helena Labs, American Diagnostica, and Chemical Dynamics. Human Factor Xa was from Enzyme Research Laboratories. Human plasmin, urokinase, and bovine thrombin were from Calbiochem; bovine trypsin, chymotrypsin, and pancreatic elastase were from Worthington Enzymes, Inc. Plasma kallikrein, carboxypeptidase Y, S. aureus V8 protease and protease inhibitors were from Sigma. Two chain tPA was from American Diagnostica.
(§2) Assays were carried out at room temperature in 96-well microtiter plates. […] The concentration of Factor Xa was determined by active site titration. The concentrations of working solutions of the other proteases were determined spectrophotometrically using published extinction coefficients. The concentration of purified inhibitor was determined by quantitative amino acid analysis. […]
(§3) Because the TAP-1 was pre-incubated with the human Factor Xa to establish equilibrium in the absence of substrate, a value for the intrinsic Ki irrespective of the mechanism was calculated (solid line) using the equation for tight binding inhibition described in the article by Morrison, J. F. in Biochem. Biophys. […]

plasmin = biological target: T2, plasmin (Homo sapiens, UniProt P00747); assay: plasmin chromogenic enzyme assay (Spectrozyme PL); format: biochemical; conditions: 300-fold molar excess of TAP-1 over protease
T2 construct: Human plasmin, urokinase, and bovine thrombin were from Calbiochem; purchased Calbiochem
From the text: as §1, §2, §3

thrombin = biological target: T3, thrombin (Bos taurus, UniProt P00735); assay: thrombin chromogenic enzyme assay (S-2238); format: biochemical, bovine; conditions: 300-fold molar excess of TAP-1 over protease
T3 construct: responsible for the Factor Xa conversion of prothrombin to thrombin in vivo; purchased Calbiochem
From the text: as §1, §2, §3

trypsin = biological target: T4, trypsin (Bos taurus, UniProt P00760); assay: trypsin chromogenic enzyme assay; format: biochemical, bovine; conditions: 300-fold molar excess of TAP-1 over protease
T4 construct: purchased Worthington Enzymes, Inc
T4 sequence (P00760 24-246): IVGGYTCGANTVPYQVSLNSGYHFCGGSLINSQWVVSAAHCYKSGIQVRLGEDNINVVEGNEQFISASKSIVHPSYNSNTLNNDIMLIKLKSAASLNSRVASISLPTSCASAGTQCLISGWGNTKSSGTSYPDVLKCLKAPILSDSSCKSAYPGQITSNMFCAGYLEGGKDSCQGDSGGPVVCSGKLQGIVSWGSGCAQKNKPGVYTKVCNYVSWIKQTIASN
From the text: as §1, §2, §3

Factor VIIa = Factor VIIa (Homo sapiens, UniProt P08709); assay: Factor VIIa assay (release of 3H-activation peptide from human Factor X); format: biochemical; conditions: 300-fold molar excess of TAP-1 over protease
Description: Assays were carried out at room temperature in 96-well microtiter plates. The color developed from the hydrolysis of peptide-nitroanilide substrates was monitored continuously at 405 nM on a Vmax machine (Molecular Devices). The concentration of Factor Xa was determined by active site titration. The concentrations of working solutions of the other proteases were determined spectrophotometrically using published extinction coefficients. The concentration of purified inhibitor was determined by quantitative amino acid analysis. […] In the case of human Factor Xa, the buffers also included 0.1% BSA; for S. aureus V8 protease the buffer was 50 mM NH4 HCo3. The substrates used were: Spectrozyme Xa (Factor Xa), S-2238 (thrombin), S-2356 (chymotrypsin), S-2366 (Factor XIa) Boc-AlaAla-Pro-Ala-pNA (elastase), Spectrozyme Pkal (kallikrein), Spectrozyme PL (plasmin), Spectrozyme UK (urokinase) Z-Phe-Leu-Glu-pNA (S. aureus V8 protease) and Spectrozyme tPA for tPA. […]
as §3

Plasma kallikrein = biological target: T5, Plasma kallikrein (Homo sapiens, UniProt P03952); assay: kallikrein chromogenic enzyme assay (Spectrozyme Pkal); format: biochemical; conditions: 300-fold molar excess of TAP-1 over protease
T5 construct: purchased Sigma
From the text: as §1, §2, §3

Normal Human Plasma [2] = assay: Activated Partial Thromboplastin Time, plasma based clotting assay; format: biochemical
Normal Human Plasma [3] = assay: Prothrombin Time, plasma based clotting assay; format: biochemical
S. aureus V8 protease = S. aureus V8 protease (Staphylococcus aureus, UniProt P0C1U8); conditions: 300-fold molar excess of TAP-1 over protease
From the text: as §1, §2, §3

pancreatic elastase = biological target: T6, pancreatic elastase (Sus scrofa, UniProt P00772); assay: elastase chromogenic enzyme assay (Boc-AlaAla-Pro-Ala-pNA); format: biochemical; conditions: 300-fold molar excess of TAP-1 over protease
T6 construct: purchased Worthington Enzymes, Inc
From the text: as §1, §2, §3

human Factor Xa = biological target: T7, human Factor Xa (Homo sapiens, UniProt P00742); assay: Factor Xa chromogenic enzyme assay (Spectrozyme Xa); format: biochemical; conditions: for Ki: inhibitor pre-incubated with human Factor Xa, tight binding equation, read-out: Ki for inhibition of Factor Xa
T7 construct: purchased Enzyme Research Laboratories
Description: Assays were carried out at room temperature in 96-well microtiter plates. The color developed from the hydrolysis of peptide-nitroanilide substrates was monitored continuously at 405 nM on a Vmax machine (Molecular Devices). The concentration of Factor Xa was determined by active site titration. The concentrations of working solutions of the other proteases were determined spectrophotometrically using published extinction coefficients. The concentration of purified inhibitor was determined by quantitative amino acid analysis. […] In the case of human Factor Xa, the buffers also included 0.1% BSA; for S. aureus V8 protease the buffer was 50 mM NH4 HCo3. The substrates used were: Spectrozyme Xa (Factor Xa), S-2238 (thrombin), S-2356 (chymotrypsin), S-2366 (Factor XIa) Boc-AlaAla-Pro-Ala-pNA (elastase), Spectrozyme Pkal (kallikrein), Spectrozyme PL (plasmin), Spectrozyme UK (urokinase) Z-Phe-Leu-Glu-pNA (S. aureus V8 protease) and Spectrozyme tPA for tPA. Factor VIIa was assayed by measuring the release of the ^3 H-activation peptide from human Factor X. For kinetic analyses, assays were carried for up to 10 min. followed by estimation of the initial rate where less than 5% of the added substrate was utilized.
Because the TAP-1 was pre-incubated with the human Factor Xa to establish equilibrium in the absence of substrate, a value for the intrinsic Ki irrespective of the mechanism was calculated (solid line) using the equation for tight binding inhibition described in the article by Morrison, J. F. in Biochem. Biophys. Acta 185,269 (1969). The effect on TAP-1 on various proteases also was tested.

urokinase = biological target: T8, urokinase (Homo sapiens, UniProt P00749); assay: urokinase chromogenic enzyme assay (Spectrozyme UK); format: biochemical; conditions: 300-fold molar excess of TAP-1 over protease
T8 construct: purchased Calbiochem
From the text: as §1, §2, §3

[4] = tested on: thromboplastin-induced clot formation; assay: in vivo model of thromboplastin-induced clot formation (jugular vein); design: species or system rabbit; conditions: rabbits, untreated 29.2±3.4%
Description: An in vivo model of thromboplastin-induced clot formation similar to Van Ryn-McKenna, et al., (1989) Thrombosis and Haemostasis 61:7-9 was used to determine the efficacy of the Factor Xa inhibitor recombinant TAP-1. Rabbits were pretreated with an infusion of recombinant TAP-1 for 60 minutes, at which time a segment of the jugular vein was isolated and occluded. Thromboplastin and whole blood withdrawn from the carotid artery were injected into the segment in order to induce clot formation. The jugular vein remained occluded for 30 minutes before the clot was removed and quantitated.

prothrombin time = prothrombin time in infused rabbits; format: in vivo, rabbit; conditions: i.v. infusions of 7, 37 and 64 μg/kg/min
[5] = tested on: activated partial thromboplastin time; assay: activated partial thromboplastin time in infused rabbits; format: in vivo, rabbit; conditions: i.v. infusions of 7, 37 and 64 μg/kg/min
[6] = 28.9 pMol TAP-1, Normal Human Plasma
[7] = 57.8 pMol TAP-1, Normal Human Plasma
[8] = 115 pMol TAP-1, Normal Human Plasma

T7 sequence (P00742 235-488 limits assumed): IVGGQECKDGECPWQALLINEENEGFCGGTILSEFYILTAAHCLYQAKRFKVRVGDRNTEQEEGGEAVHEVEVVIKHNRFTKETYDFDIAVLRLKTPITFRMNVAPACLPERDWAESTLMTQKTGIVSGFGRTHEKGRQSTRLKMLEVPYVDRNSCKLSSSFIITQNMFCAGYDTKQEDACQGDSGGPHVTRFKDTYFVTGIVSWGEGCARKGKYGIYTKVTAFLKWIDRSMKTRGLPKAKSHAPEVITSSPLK
T7 sequence (P00742 41-179 partner limits assumed): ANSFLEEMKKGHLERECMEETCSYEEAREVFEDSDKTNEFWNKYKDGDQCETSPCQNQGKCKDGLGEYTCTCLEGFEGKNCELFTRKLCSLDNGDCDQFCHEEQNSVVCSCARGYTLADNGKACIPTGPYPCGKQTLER
T6 sequence (P00772 27-266): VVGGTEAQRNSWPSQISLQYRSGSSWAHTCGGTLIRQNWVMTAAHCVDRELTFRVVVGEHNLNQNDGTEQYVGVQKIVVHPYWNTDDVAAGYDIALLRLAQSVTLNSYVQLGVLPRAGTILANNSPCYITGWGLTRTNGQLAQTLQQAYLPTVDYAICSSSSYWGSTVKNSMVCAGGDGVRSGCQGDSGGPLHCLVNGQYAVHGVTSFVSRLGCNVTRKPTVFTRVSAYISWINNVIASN
T5 sequence (P03952 391-638 limits assumed, species assumed): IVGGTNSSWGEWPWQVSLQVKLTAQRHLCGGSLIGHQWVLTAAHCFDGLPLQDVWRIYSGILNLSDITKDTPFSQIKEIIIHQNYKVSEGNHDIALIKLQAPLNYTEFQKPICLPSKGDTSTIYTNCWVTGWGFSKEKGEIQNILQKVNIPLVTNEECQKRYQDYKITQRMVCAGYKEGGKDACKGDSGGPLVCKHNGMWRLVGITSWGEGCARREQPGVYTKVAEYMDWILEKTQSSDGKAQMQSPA
T5 sequence (P03952 20-390 partner limits assumed, species assumed): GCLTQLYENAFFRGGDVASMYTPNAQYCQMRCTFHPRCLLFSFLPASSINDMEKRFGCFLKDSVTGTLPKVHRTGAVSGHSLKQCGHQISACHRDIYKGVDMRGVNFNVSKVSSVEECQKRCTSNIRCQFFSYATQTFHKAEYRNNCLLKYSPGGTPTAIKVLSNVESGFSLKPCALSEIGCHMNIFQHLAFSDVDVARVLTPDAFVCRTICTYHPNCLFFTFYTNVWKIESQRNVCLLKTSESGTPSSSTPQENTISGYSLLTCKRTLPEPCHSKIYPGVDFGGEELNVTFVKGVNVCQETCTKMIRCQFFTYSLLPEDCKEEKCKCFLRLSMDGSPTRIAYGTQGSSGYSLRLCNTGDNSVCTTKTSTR
Chain of S. aureus V8 protease (P0C1U8 69-336): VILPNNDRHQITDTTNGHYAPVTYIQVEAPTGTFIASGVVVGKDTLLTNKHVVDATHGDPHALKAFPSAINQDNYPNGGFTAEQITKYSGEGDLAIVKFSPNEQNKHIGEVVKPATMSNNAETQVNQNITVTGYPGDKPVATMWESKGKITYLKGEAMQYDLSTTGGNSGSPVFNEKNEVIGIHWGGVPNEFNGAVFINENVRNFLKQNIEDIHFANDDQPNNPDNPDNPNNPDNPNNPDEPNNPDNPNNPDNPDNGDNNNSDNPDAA
T2 sequence (P00747 581-810 limits assumed): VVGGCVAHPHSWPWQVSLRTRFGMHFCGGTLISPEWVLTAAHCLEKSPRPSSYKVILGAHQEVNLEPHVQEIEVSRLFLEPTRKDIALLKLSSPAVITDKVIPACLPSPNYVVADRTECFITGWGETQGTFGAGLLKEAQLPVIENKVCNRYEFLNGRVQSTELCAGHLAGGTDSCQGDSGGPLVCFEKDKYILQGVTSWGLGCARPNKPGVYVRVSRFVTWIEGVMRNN
T2 sequence (P00747 97-580 partner limits assumed): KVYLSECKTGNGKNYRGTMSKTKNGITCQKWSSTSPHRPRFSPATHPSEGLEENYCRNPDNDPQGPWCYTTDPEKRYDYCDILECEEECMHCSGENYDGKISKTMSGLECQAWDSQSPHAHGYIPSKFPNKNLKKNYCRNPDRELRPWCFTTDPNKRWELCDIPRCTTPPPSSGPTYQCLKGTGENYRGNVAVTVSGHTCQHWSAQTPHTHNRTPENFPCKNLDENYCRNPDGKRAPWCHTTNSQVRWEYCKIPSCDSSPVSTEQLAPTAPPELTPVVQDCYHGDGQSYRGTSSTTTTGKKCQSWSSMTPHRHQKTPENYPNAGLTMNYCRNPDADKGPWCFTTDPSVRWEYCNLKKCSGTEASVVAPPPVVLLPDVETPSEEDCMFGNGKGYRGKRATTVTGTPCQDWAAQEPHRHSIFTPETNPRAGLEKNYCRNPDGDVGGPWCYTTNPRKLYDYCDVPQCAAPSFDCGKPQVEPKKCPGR
Chain of Factor VIIa (P08709 213-466 limits assumed): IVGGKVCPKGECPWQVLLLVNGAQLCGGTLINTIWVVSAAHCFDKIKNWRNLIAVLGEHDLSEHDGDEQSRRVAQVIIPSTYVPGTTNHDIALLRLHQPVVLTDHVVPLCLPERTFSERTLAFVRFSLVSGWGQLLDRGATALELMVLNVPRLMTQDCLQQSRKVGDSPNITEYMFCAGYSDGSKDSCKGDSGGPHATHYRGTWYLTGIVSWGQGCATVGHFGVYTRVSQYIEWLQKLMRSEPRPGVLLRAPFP
Chain of Factor VIIa (P08709 61-212 partner limits assumed): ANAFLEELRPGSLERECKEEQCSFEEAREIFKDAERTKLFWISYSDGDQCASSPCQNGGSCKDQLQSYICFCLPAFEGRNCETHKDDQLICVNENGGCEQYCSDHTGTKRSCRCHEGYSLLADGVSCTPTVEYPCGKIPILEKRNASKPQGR
Chain of Factor VIIa (P13726 33-295 partner): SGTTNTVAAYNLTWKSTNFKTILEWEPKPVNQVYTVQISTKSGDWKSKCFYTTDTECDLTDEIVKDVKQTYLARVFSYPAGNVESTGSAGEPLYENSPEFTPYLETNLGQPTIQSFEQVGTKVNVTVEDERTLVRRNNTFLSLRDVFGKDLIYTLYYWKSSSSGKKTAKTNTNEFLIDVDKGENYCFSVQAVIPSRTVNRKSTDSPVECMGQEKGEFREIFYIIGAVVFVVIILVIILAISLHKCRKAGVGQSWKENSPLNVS

Substance: TAP-1: 60 amino acid Factor Xa inhibitor protein purified from Ornithodoros moubata tick extracts (YNRLCIKPRDWIDECDSNEGGERAYFRNGKGGCDSFWICPEDHTGADYYSSYRDCFNACI; UniProt P17726 1-60, looked up)
- Clotting Time, Modified Stypven Time (Normal Human Plasma [1]; [6]): 17.7 s
- Clotting Time, Modified Stypven Time (Normal Human Plasma [1]; [7]): 31.2 s
- Clotting Time, Modified Stypven Time (Normal Human Plasma [1]; [8]): 65.1 s
- inhibition of chymotrypsin (chymotrypsin): no inhibition
- inhibition of plasmin (plasmin): no inhibition
- inhibition of thrombin (thrombin): no inhibition
- inhibition of trypsin (trypsin): no inhibition
- inhibition of Factor VIIa (Factor VIIa): no inhibition
- inhibition of kallikrein (Plasma kallikrein): no inhibition
- Clotting Time, Activated Partial Thromboplastin Time (Normal Human Plasma [2]; [6]): 45.2 s
- Clotting Time, Activated Partial Thromboplastin Time (Normal Human Plasma [2]; [7]): 57.7 s
- Clotting Time, Activated Partial Thromboplastin Time (Normal Human Plasma [2]; [8]): 92.2 s
- Clotting Time, Prothrombin Time (Normal Human Plasma [3]; 1.15 pMol TAP-1, Normal Human Plasma): 15.1 s
- Clotting Time, Prothrombin Time (Normal Human Plasma [3]; [6]): 28.9 s
- Clotting Time, Prothrombin Time (Normal Human Plasma [3]; [7]): 31.2 s
- Clotting Time, Prothrombin Time (Normal Human Plasma [3]; [8]): 48.7 s
- inhibition of S. aureus V8 protease (S. aureus V8 protease): no inhibition
- inhibition of elastase (pancreatic elastase): no inhibition
- effect of Ca++ on the ability to inhibit Factor Xa (human Factor Xa; inclusion of 1-5 mM Ca++): no effect
- Ki (human Factor Xa): 0.58 nM
- inhibition of urokinase (urokinase): no inhibition

Substance: recombinant TAP-1: TAP-1 expressed from a synthetic gene in S. cerevisiae and purified from broth (YNRLCIKPRDWIDECDSNEGGERAYFRNGKGGCDSFWICPEDHTGADYYSSYRDCFNACI; UniProt P17726 1-60, looked up)
- Clot formation (normalized clot value) ([4]; i.v. infusion 7 μg/kg/min for 60 minutes): 27.0±7.5%
- Clot formation (normalized clot value) ([4]; i.v. infusion 37 μg/kg/min for 60 minutes): 7.9±2.0%
- Clot formation (normalized clot value) ([4]; i.v. infusion 64 μg/kg/min for 60 minutes): 1.9±1.0%
- effect on prothrombin time (prothrombin time): did not significantly increase
- effect on activated partial thromboplastin time [5]: did not significantly increase
- Ki (human Factor Xa): 0.2 nM
